# Where two headings read alike, the source gives them in different places.
# How the values were obtained:
# [1] = system: blood clotting (activated clotting system); assay: Clotting test, activated partial thromboplastin time (aPTT); format: biochemical; details: prolongation of 150% of the blank value as reference point; converted by heparin calibration curve
# Procedure: The inhibition of blood clotting can be measured in a simple manner by means of the activated partial thromboplastin time aPTT. It gives information about the general inhibition of the activated clotting system. In order to decrease the incidence of hemorrhages, as low as possible an inhibition of blood clotting is desired.
# Clotting test, aPTT 0.1 ml of plasma and 0.1 ml of Pathromtin^R (Behringwerke, Marburg) are incubated at 37° C. for 2 minutes and 0.1 ml of 25 mM CaCl2 solution is added. The clotting time is measured in a Schnitger & Gross coagulometer. The agent is made up for 5 individual determinations per concentration.
# The prlongation of the clotting time is converted into heparin units by means of a calibration curve.
# [2] = system: fibrinolysis (plasminogen-containing fibrin plates, human standard plasma); assay: Fibrinolysis test (lysis haloes on plasminogen-containing fibrin plates); format: biochemical; details: area of lysis haloes less lysis area without substance, 24 hours at 37° C.
# Source text: The formation of a clinically manifest (relatively large) thrombus can be prevented in various ways. For one, the factors which are involved in the formation of the primary thrombus, such as blood platelet aggregation or the blood clotting system, can be eliminated. On the other hand, the dissolution of the primary thrombus can be accelerated by potentiating endogeneous fibrinolysis. A potentiation of endogeneous fibrinolysis can also serve to dissolve already clinically manifest thrombi again. The fibrinolytic action of a substance is thus of great significance in the prophylaxis and therapy of thrombosis. The fibrinolytic action of the substances according to the invention was determined in the test below.
# Fibrinolysis was determined by means of plasminogen-containing fibrin plates.
# Petri dishes, dia. 9 cm, were prewarmed to 40° C. 3 ml of a 2% solution of fibrinogen (Behringwerke, Marburg) in water, 1 ml of a plasminogen solution, 2 CTA/ ml (Behringwerke, Marburg), 3 ml of a 1% agarose solution (Serva, Heidelberg) in 50 mM TRIS/HCl, pH 7.8 and 1 ml of a solution of 15 U/ml of thrombin (Behringwerke, Marburg) in water were pipetted into the dishes with swirling. After cooling the plates, wells of 5 mm diameter were punched out.
# 0.1 ml of plasma (human standard plasma, Behringwerke, Marburg), 0.8 ml of water and 0.1 ml of solution of the test substance in various concentrations were incubated for 10 minutes at 37° C. […] The precipitate was taken up in 0.1 ml of buffer (20 mM TRIS/HCl, 100 mM NaCl, 2.7 mM EDTA, pH 7.8).
# After 24 hours at 37° C., the lysis haloes were planimetered. The areas of the lysis haloes less the lysis areas without addition of substance serve as a measure for the fibrinolysis-increasing activity.
# [3] = system: radical formation by leucocytes; assay: Test on anti-inflammatory action: inhibition of luminol-potentiated chemiluminescence in whole blood; format: cell-based, rabbit; details: Oryctolagus cuniculus, Leucocyte, 1.5 h, read-out: IC50 (50% inhibition of luminol-potentiated chemiluminescence)
# [4] = system: bleeding time; assay: Influence on the bleeding time (rat tail); format: in vivo; details: rats, 5 minutes before bleeding, compared to control
# Procedure: A piece of tail about 2 mm long was cut from rats. The time until bleeding had stopped was measured. The test substance in various concentrations or physiological saline solution (control) was administered to the animals 5 minutes before causing the bleeding. Groups of 20 animals were treated. The proiongalion of the bleeding time compared to the control was expressed in percent.
# [5] = system: blood clotting (activated clotting system); details: standard heparin from the firm Pharmindustrie; cited from earlier work
Compound,"heparin units (inhibition of blood clotting, aPTT) [1]",Fibrinolysis at 2 μg/ml [2],IC50 [3],further results
"O=C(NCCCNC(=O)[C@H](OS(=O)(=O)O)[C@@H](OS(=O)(=O)O)[C@H](O[C@@H]1O[C@H](COS(=O)(=O)O)[C@H](OS(=O)(=O)O)[C@H](OS(=O)(=O)O)[C@H]1OS(=O)(=O)O)[C@@H](COS(=O)(=O)O)OS(=O)(=O)O)[C@H](OS(=O)(=O)O)[C@@H](OS(=O)(=O)O)[C@H](O[C@@H]1O[C@H](COS(=O)(=O)O)[C@H](OS(=O)(=O)O)[C@H](OS(=O)(=O)O)[C@H]1OS(=O)(=O)O)[C@@H](COS(=O)(=O)O)OS(=O)(=O)O.[Na].[Na].[Na].[Na].[Na].[Na].[Na].[Na].[Na].[Na].[Na].[Na].[Na].[Na].[Na].[Na] [Example 20, Hexadecasodium N,N'-1,3-propanediylbis-[2,3,5,6-tetra-O-sulfo-4-O-(2,3,4,6-tetra-O-sulfo-β-D-galactopyranosyl)-D-gluconamide]]",42.1 u/mg,19.2 mm^2,540 µg/mL,Lengthening of the bleeding time ([4]; Dose 0.5 mg/kg): 5.1%; Lengthening of the bleeding time ([4]; Dose 2 mg/kg): 35.1%
"O=C(NCCCCCCNC(=O)[C@H](OS(=O)(=O)O)[C@@H](OS(=O)(=O)O)[C@H](O[C@@H]1O[C@H](COS(=O)(=O)O)[C@H](OS(=O)(=O)O)[C@H](OS(=O)(=O)O)[C@H]1OS(=O)(=O)O)[C@@H](COS(=O)(=O)O)OS(=O)(=O)O)[C@H](OS(=O)(=O)O)[C@@H](OS(=O)(=O)O)[C@H](O[C@@H]1O[C@H](COS(=O)(=O)O)[C@H](OS(=O)(=O)O)[C@H](OS(=O)(=O)O)[C@H]1OS(=O)(=O)O)[C@@H](COS(=O)(=O)O)OS(=O)(=O)O.[Na].[Na].[Na].[Na].[Na].[Na].[Na].[Na].[Na].[Na].[Na].[Na].[Na].[Na].[Na].[Na] [Example 23, Hexadecasodium N,N'-1,6-hexanediylbis-[2,3,5,6-tetra-O-sulfo-4-O-(2,3,4,6-tetra-O-sulfo-β-D-galactopyranosyl)-D-gluconamide]]",30.9 u/mg,21.6 mm^2,225 µg/mL,–
"O=C(NCCCCCCCCCNC(=O)[C@H](OS(=O)(=O)O)[C@@H](OS(=O)(=O)O)[C@H](O[C@@H]1O[C@H](COS(=O)(=O)O)[C@H](OS(=O)(=O)O)[C@H](OS(=O)(=O)O)[C@H]1OS(=O)(=O)O)[C@@H](COS(=O)(=O)O)OS(=O)(=O)O)[C@H](OS(=O)(=O)O)[C@@H](OS(=O)(=O)O)[C@H](O[C@@H]1O[C@H](COS(=O)(=O)O)[C@H](OS(=O)(=O)O)[C@H](OS(=O)(=O)O)[C@H]1OS(=O)(=O)O)[C@@H](COS(=O)(=O)O)OS(=O)(=O)O.[Na].[Na].[Na].[Na].[Na].[Na].[Na].[Na].[Na].[Na].[Na].[Na].[Na].[Na].[Na].[Na] [Example 24, Hexadecasodium N,N'-1,9-nonanediylbis-[2,3,5,6-tetra-O-sulfo-4-O-(2,3,4,6-tetra-O-sulfo-β-D-galactopyranosyl)-D-gluconamide]]",14.1 u/mg,17.8 mm^2,220 µg/mL,–
"O=C(NCCCCCCCCCCCCNC(=O)[C@H](OS(=O)(=O)O)[C@@H](OS(=O)(=O)O)[C@H](O[C@@H]1O[C@H](COS(=O)(=O)O)[C@H](OS(=O)(=O)O)[C@H](OS(=O)(=O)O)[C@H]1OS(=O)(=O)O)[C@@H](COS(=O)(=O)O)OS(=O)(=O)O)[C@H](OS(=O)(=O)O)[C@@H](OS(=O)(=O)O)[C@H](O[C@@H]1O[C@H](COS(=O)(=O)O)[C@H](OS(=O)(=O)O)[C@H](OS(=O)(=O)O)[C@H]1OS(=O)(=O)O)[C@@H](COS(=O)(=O)O)OS(=O)(=O)O.[Na].[Na].[Na].[Na].[Na].[Na].[Na].[Na].[Na].[Na].[Na].[Na].[Na].[Na].[Na].[Na] [Example 25, Hexadecasodium N,N'-1,12-dodecanediylbis-[2,3,5,6-tetra-O-sulfo-4-O-(2,3,4,6-tetra-O-sulfo-β-D-galactopyranosyl)-D-gluconamide]]",5.85 u/mg,–,155 µg/mL,–
"O=C(NC1CCC(CC2CCC(NC(=O)[C@H](OS(=O)(=O)O)[C@@H](OS(=O)(=O)O)[C@H](O[C@@H]3O[C@H](COS(=O)(=O)O)[C@H](OS(=O)(=O)O)[C@H](OS(=O)(=O)O)[C@H]3OS(=O)(=O)O)[C@@H](COS(=O)(=O)O)OS(=O)(=O)O)CC2)CC1)[C@H](OS(=O)(=O)O)[C@@H](OS(=O)(=O)O)[C@H](O[C@@H]1O[C@H](COS(=O)(=O)O)[C@H](OS(=O)(=O)O)[C@H](OS(=O)(=O)O)[C@H]1OS(=O)(=O)O)[C@@H](COS(=O)(=O)O)OS(=O)(=O)O (stereo partly drawn) [Example 31, Hexadecasodium N,N'-4,4-dicylcohexylmethanediylbis-[2,3,5,6-tetra-O-sulfo-4-O-(2,3,4,6-tetra-O-sulfo-β-D-galactopyranosyl)-D-gluconamide]]",10.2 u/mg,–,–,–
"O=C(NCCCOCCCCOCCCNC(=O)[C@H](OS(=O)(=O)O)[C@@H](OS(=O)(=O)O)[C@H](O[C@@H]1O[C@H](COS(=O)(=O)O)[C@H](OS(=O)(=O)O)[C@H](OS(=O)(=O)O)[C@H]1OS(=O)(=O)O)[C@@H](COS(=O)(=O)O)OS(=O)(=O)O)[C@H](OS(=O)(=O)O)[C@@H](OS(=O)(=O)O)[C@H](O[C@@H]1O[C@H](COS(=O)(=O)O)[C@H](OS(=O)(=O)O)[C@H](OS(=O)(=O)O)[C@H]1OS(=O)(=O)O)[C@@H](COS(=O)(=O)O)OS(=O)(=O)O [Example 34, Hexadecasodium N,N'-1,12-(4,9-dioxadodecanediylbis)[2,3,5,6-tetra-O-sulfo-4-O-(2,3,4,6-tetra-O-sulfo-β-D-galactopyranosyl)-D-gluconamide]]",15.1 u/mg,–,–,–
"COc1ccc2c(c1)c(CC(=O)O)c(C)n2C(=O)c1ccc(Cl)cc1 [Indomethacin, reference compound]",–,–,–,"IC50 ([3]; zymosan-stimulated citrated rabbit blood, maximum chemiluminescence over 90 minutes): 240 µg/mL"
Heparin [reference compound],175 u/mg,14.8 mm^2,–,heparin activity of the standard [5]: 175 U/mg; Lengthening of the bleeding time ([4]; Dose 0.25 mg/kg): 55.4%; Lengthening of the bleeding time ([4]; Dose 0.5 mg/kg): 120%
